ChEMBL document CHEMBL3112479, “Synthesis and evaluation of the antimicrobial activities of 3-((5-phenyl-1,3,4-oxadiazol-2-yl)methyl)-2-thioxothiazolidin-4-one derivatives” (2014)
In brackets after ≈: the same amount, converted by molar mass.

How the values were obtained:
Pseudomonas aeruginosa [1] = assay: Antimicrobial activity against Pseudomonas aeruginosa 2004 after 20 hrs by two-fold serial dilution technique; type: functional; conditions: Pseudomonas aeruginosa, 2004, 20 h
Staphylococcus aureus [2] = assay: Antimicrobial activity against Staphylococcus aureus 503 after 20 hrs by two-fold serial dilution technique; type: functional; conditions: Staphylococcus aureus, 503, 20 h
Escherichia coli [3] = assay: Antimicrobial activity against Escherichia coli KCTC 1924 after 20 hrs by two-fold serial dilution technique; type: functional; conditions: KCTC 1924, 20 h
Pseudomonas aeruginosa [4] = assay: Antimicrobial activity against Pseudomonas aeruginosa 2742 after 20 hrs by two-fold serial dilution technique; type: functional; conditions: Pseudomonas aeruginosa, 2742, 20 h
Candida albicans = assay: Antimicrobial activity against Candida albicans 7535 after 20 hrs by two-fold serial dilution technique; type: functional; conditions: Candida albicans, 7535, 20 h
Salmonella typhimurium [5] = assay: Antimicrobial activity against Salmonella typhimurium 1926 after 20 hrs by two-fold serial dilution technique; type: functional, Salmonella enterica subsp. enterica serovar Typhimurium; conditions: Salmonella enterica, 1926, 20 h
Escherichia coli [6] = assay: Antimicrobial activity against Escherichia coli CCARM 1356 after 20 hrs by two-fold serial dilution technique; type: functional; conditions: CCARM 1356, 20 h
Staphylococcus aureus [7] = assay: Antimicrobial activity against quinolone-resistant Staphylococcus aureus clinical isolate 3519 after 20 hrs by two-fold serial dilution technique; type: functional; conditions: isolate 3519, 20 h
Staphylococcus aureus [8] = assay: Antimicrobial activity against methicillin-resistant Staphylococcus aureus clinical isolate 3506 after 20 hrs by two-fold serial dilution technique; type: functional; conditions: isolate 3506, 20 h
Salmonella typhimurium [9] = assay: Antimicrobial activity against Salmonella typhimurium 2421 after 20 hrs by two-fold serial dilution technique; type: functional, Salmonella enterica subsp. enterica serovar Typhimurium; conditions: Salmonella enterica, 2421, 20 h
Staphylococcus aureus [10] = assay: Antimicrobial activity against Staphylococcus aureus RN4220 after 20 hrs by two-fold serial dilution technique; type: functional; conditions: RN4220, 20 h
Staphylococcus aureus [11] = assay: Antimicrobial activity against Staphylococcus aureus 209 after 20 hrs by two-fold serial dilution technique; type: functional; conditions: Staphylococcus aureus, 209, 20 h
Staphylococcus aureus [12] = assay: Antimicrobial activity against quinolone-resistant Staphylococcus aureus clinical isolate 3505 after 20 hrs by two-fold serial dilution technique; type: functional; conditions: isolate 3505, 20 h
Staphylococcus aureus [13] = assay: Antimicrobial activity against methicillin-resistant Staphylococcus aureus clinical isolate 3167 after 20 hrs by two-fold serial dilution technique; type: functional; conditions: isolate 3167, 20 h
Streptococcus mutans = assay: Antimicrobial activity against Streptococcus mutans 3065 after 20 hrs by two-fold serial dilution technique; type: functional; conditions: Streptococcus mutans, 3065, 20 h

Structure (SMILES) | MIC (Pseudomonas aeruginosa [1]) [µg/mL] | MIC (Staphylococcus aureus [2]) [µg/mL] | MIC (Escherichia coli [3]) [µg/mL] | MIC (Pseudomonas aeruginosa [4]) [µg/mL] | MIC (Candida albicans) [µg/mL] | MIC (Salmonella typhimurium [5]) [µg/mL] | MIC (Escherichia coli [6]) [µg/mL] | MIC (Staphylococcus aureus [7]) [µg/mL] | MIC (Staphylococcus aureus [8]) [µg/mL] | MIC (Salmonella typhimurium [9]) [µg/mL] | MIC (Staphylococcus aureus [10]) [µg/mL] | MIC (Staphylococcus aureus [11]) [µg/mL] | MIC (Staphylococcus aureus [12]) [µg/mL] | MIC (Staphylococcus aureus [13]) [µg/mL] | MIC (Streptococcus mutans) [µg/mL]
Cc1cccc(-c2nnc(CN3C(=O)CSC3=S)o2)c1 | > 128 | 32 (≈ 105 µM) | 16 (≈ 52.4 µM) | > 128 | 64 (≈ 210 µM) | 64 (≈ 210 µM) | > 128 | 32 (≈ 105 µM) | 32 (≈ 105 µM) | 128 (≈ 419 µM) | 32 (≈ 105 µM) | 16 (≈ 52.4 µM) | 32 (≈ 105 µM) | 32 (≈ 105 µM) | 8 (≈ 26.2 µM)
O=C1CSC(=S)N1Cc1nnc(-c2cccc(Cl)c2)o1 | > 128 | 32 (≈ 98.2 µM) | 16 (≈ 49.1 µM) | > 128 | 32 (≈ 98.2 µM) | 32 (≈ 98.2 µM) | > 128 | 32 (≈ 98.2 µM) | 32 (≈ 98.2 µM) | 64 (≈ 196 µM) | 16 (≈ 49.1 µM) | 16 (≈ 49.1 µM) | 32 (≈ 98.2 µM) | 32 (≈ 98.2 µM) | 16 (≈ 49.1 µM)
COc1c(N2CCNC(C)C2)c(F)cc2c(=O)c(C(=O)O)cn(C3CC3)c12 (stereo not given) [GATIFLOXACIN] | 1 (≈ 2.66 µM) | 4 (≈ 10.7 µM) | 2 (≈ 5.33 µM) | 1 (≈ 2.66 µM) | 0.5 (≈ 1.33 µM) | 2 (≈ 5.33 µM) | 16 (≈ 42.6 µM) | 4 (≈ 10.7 µM) | 2 (≈ 5.33 µM) | 0.5 (≈ 1.33 µM) | 0.25 (≈ 0.666 µM) | 2 (≈ 5.33 µM) | 8 (≈ 21.3 µM) | 2 (≈ 5.33 µM) | 0.5 (≈ 1.33 µM)
